Like-named read-outs stand apart in the source and are kept apart here.
Assays:
[1] = Solid form conversion under humidity / ambient conditions; assay type: physicochemical
Method: Polymorph form B is likely also an anhydrous form of apratastat. […] Form B disappears upon mild heating (e.g., at or above about 35° C.) under ambient humidity levels.

[2] = Solid form after open pan DSC heating, by powder XRD; assay type: physicochemical
Method: X-ray diffraction data (e.g., FIGS. 1, 4, 6 and 8) were collected using a Philips X'Pert PW-3040-MPD X-ray diffractometer (Philips, Bothell, Wash.) set at 40 kV and 40 mA. Data was collected as a continuous scan at 0.02°/sec. between […].
DSC data (e.g., FIG. 10) were collected using a TA Instruments DSC 2920 Differential Scanning Calorimeter (TA Instruments, New Castle, Del.). Measurements were carried out in both closed pan and open pan modes on about 5-35 mg samples. The heating profile was from 25° C. to 170° C. at 5° C./min, or 25° C. to 120° C. at 5° C./min with a ten minute holding time at 120° C., or 25° C. to 135° C. at 5° C./min with a five minute holding time at 135° C., or 25° C. to 150° C. at 5° C./min with a one minute holding time at 150° C.
A micronized sample of apratastat polymorph form A was subjected to three separate DSC experiments performed in the open pan mode as described in Example 5 above using the 120° C., 135° C., and 150° C. heating profiles. Each sample was cooled to ambient temperature and then recovered for powder X-ray diffraction (XRD) analysis as described in Example 2.
A milled sample of apratastat polymorph form A was subjected to similar DSC conditions.

[3] = test system: matrix metalloproteinase (MMP); details: cited from earlier work
[4] = target: T1, TNF-α converting enzyme (TACE) (Homo sapiens, UniProt P78536); details: as described in U.S. Pat. No. 6,225,311; cited from earlier work
TNF-α [5] = assay: murine lipopolysaccharide (LPS) model; assay type: in vivo
TNF-α [6] = assay: primate lipopolysaccharide (LPS) model; assay type: in vivo
[7] = test system: human synovium tissue explants from patients suffering from rheumatoid arthritis; assay: TNF-α secretion by human synovium tissue explants; assay type: cell-based
[8] = target: T1, TNF-α converting enzyme (TACE); assay: TACE inhibition in vitro; assay type: biochemical

T1 sequence (P78536 215-824, species assumed): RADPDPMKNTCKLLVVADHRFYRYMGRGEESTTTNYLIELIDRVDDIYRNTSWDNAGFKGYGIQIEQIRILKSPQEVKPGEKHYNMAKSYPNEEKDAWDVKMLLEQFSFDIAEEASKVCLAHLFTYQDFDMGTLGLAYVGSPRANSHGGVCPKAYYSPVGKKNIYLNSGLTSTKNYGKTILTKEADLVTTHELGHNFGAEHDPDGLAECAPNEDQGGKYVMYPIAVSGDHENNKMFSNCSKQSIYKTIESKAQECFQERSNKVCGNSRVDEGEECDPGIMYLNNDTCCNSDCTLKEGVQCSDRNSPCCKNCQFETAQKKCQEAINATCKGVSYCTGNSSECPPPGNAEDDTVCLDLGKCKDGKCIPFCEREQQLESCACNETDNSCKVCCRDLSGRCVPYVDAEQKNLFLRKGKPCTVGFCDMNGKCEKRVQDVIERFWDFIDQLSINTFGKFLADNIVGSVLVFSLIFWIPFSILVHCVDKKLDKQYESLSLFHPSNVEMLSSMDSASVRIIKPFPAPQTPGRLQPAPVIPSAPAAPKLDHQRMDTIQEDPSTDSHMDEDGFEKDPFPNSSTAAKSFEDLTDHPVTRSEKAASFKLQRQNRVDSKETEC

CC1(C)SCCN(S(=O)(=O)c2ccc(OCC#CCO)cc2)[C@H]1C(=O)NO [Form B, (3S)-N-hydroxy-4-({4-[(4-hydroxy-2-butynyl)oxy]phenyl}sulfonyl)-2,2-dimethyl-3-thiomorpholinecarboxamide]
solid form stability under ambient conditions ([1]; ambient conditions, little or no energy input): can convert back to form A | solid form stability upon mild heating ([1]; at or above about 35° C., ambient humidity levels): disappears

CC1(C)SCCN(S(=O)(=O)c2ccc(OCC#CCO)cc2)[C@H]1C(=O)NO [apratastat polymorph form A, (3S)-N-hydroxy-4-({4-[(4-hydroxy-2-butynyl)oxy]phenyl}sulfonyl)-2,2-dimethyl-3-thiomorpholinecarboxamide]
solid form stability in low-moisture environment ([1]; about 4-5% relative humidity, at or near room temperature): a portion or all of the polymorph may convert to a new form (form B) | XRD form after heating ([2]; micronized sample, 120° C. heating profile, open pan): Form C | XRD form after heating ([2]; micronized sample, 135° C. heating profile, open pan): Form C | XRD form after heating ([2]; micronized sample, 150° C. heating profile, open pan): Amorphous | XRD form after heating ([2]; milled sample, 120° C. heating profile): Form C + D | XRD form after heating ([2]; milled sample, 135° C. heating profile): Form C + D | XRD form after heating ([2]; milled sample, 150° C. heating profile): Form D

CC1(C)SCCN(S(=O)(=O)c2ccc(OCC#CCO)cc2)[C@H]1C(=O)NO [apratastat, (3S)-N-hydroxy-4-({4-[(4-hydroxy-2-butynyl)oxy]phenyl}sulfonyl)-2,2-dimethyl-3-thiomorpholinecarboxamide]
inhibition of MMP enzymes [3]: inhibitor | inhibition of TACE [4]: inhibitor | TNF-α inhibition (TNF-α [5]): potent TNF-α inhibitor | TNF-α inhibition (TNF-α [6]): potent TNF-α inhibitor | inhibition of TNF-α secretion [7]: inhibits TNF-α secretion | inhibition of TACE [8]: potent, reversible, and competitive inhibitor

From patent US7435732B2, “Crystalline polymorphs of (3S)-N-hydroxy-4-({4-[-(4-hydroxy-2-butynyl)oxy]phenyl}sulfonyl)-2,2-dimethyl-3-thiomorpholine carboxamide” (Wyeth, priority 2004, dated 2008)
